Laboratory results reported in patent US20180250393A1, “MANIPULATION OF T CELL AND MAST CELL ACTIVATION BY PIK3IP1” (UNIVERSITY OF PITTSBURGH-OF THE COMMONWEALTH SYSTEM OF …, priority 2017, published 2018).

Tested on: Naïve T cells from WT and KO mice
Test: Th1 differentiation assay with PI3K/Akt pathway inhibitors, IFN-γ expression by flow cytometry
Type: cell-based, mouse
Conditions: Th1 conditions, all concentrations
Protocol: (A) Naïve T cells from WT and KO mice were cultured under Th1 conditions for three days in the presence of PI3K inhibitors (Akti, LY294002 and IC-87114), re-stimulated with PMA/Ionomycin and analyzed for IFNγ and CD25 expression. (B) Quantitation of A. p values were calculated using two-way ANOVA with Sidak's multiple comparisons test. p values are represented with the following symbols: *0.01-0.05, **0.001-0.01, ***<0.001. Data are representative of more than three experiments.
CD4 T cells from spleens and lymph nodes of naïve mice were purified by magnetic separation using the Miltenyi Biotec naïve CD4 T cell isolation kit (Cat#130-104-453). The purity of the final cell population was >90%. […] Cells were then harvested and analyzed by flow cytometry.
In order to determine whether the difference in Th1 polarization was actually due to the absence of PI3K modulation by TrIP, the Th1 differentiation assay was performed on WT and KO T cells with the addition of moderate concentrations of PI3K/Akt pathway inhibitors. […] At the end of culture, cells were re-stimulated with PMA/Ionomycin and evaluated by flow cytometry for IFN-γ expression. […]

## Cc1ccccc1-n1c(Cn2cnc3c(N)ncnc32)nc2cccc(C)c2c1=O [IC-87114]
  relative potency among the three inhibitors for IFN-γ production: most potent inhibitor at all concentrations
